# Measurements as given in patent publication US9464106B2, “Oligonucleotides useful for detecting and analyzing nucleic acids of interest” (Exiqon A/S, priority 2002, dated 2016).
# Marks after values point to notes of the source that are not given here. l = locked nucleic acid (LNA); [5mC] = 5-methylcytosine; d = 2'-deoxy (DNA)
# System: complementary single stranded DNA (3′-ctgNatcc)
# Experiment: Melting temperatures of DNA and LNA 8-mers containing inosine, 2,6-diaminopurine or 2-aminopurine against complementary DNA
# Format: binding
# Settings: duplex 2.5 μM; 0.1M NaCl; 10 mM Na-phosphate (pH 7.0); 1 mM EDTA
Substance,Tm of the duplex with 3′-ctgaatcc,Tm of the duplex with 3′-ctgcatcc [°C],Tm of the duplex with 3′-ctggatcc,Tm of the duplex with 3′-ctgtatcc [°C]
5′-GACATAGG [Entry 8],38.2 °C,40.6,43.4 °C,61.6
5′-GACDTAGG [Entry 11],42.2 °C,52.4,41.4 °C,67.8
5′-GACGTAGG [Entry 10],32^b ° C.,70.9,41^b ° C.,55.0
5′-GACITAGG [Entry 13],48.2 °C,59.9,43.0 °C,53.1
5′-GACTTAGG [Entry 9],60.7 °C,23.5,36.4 °C,28.0
5′-GDCDTDGG [Entry 12],55.9 °C,63.8,54.7 °C,78.3
"5′-gacatagg [Entry 1, reference compound]",<10 °C,<10,<10 °C,23.8
"5′-gacdtagg [Entry 4, reference compound]",<10 °C,<10,<10 °C,23.3
"5′-gacgtagg [Entry 3, reference compound]",<10 °C,25.0,<10 °C,<10
"5′-gacitagg [Entry 6, reference compound]",<10 °C,20.9,<10 °C,<10
"5′-gacttagg [Entry 2, reference compound]",22.6 °C,<10,<10 °C,<10

# Same assay, conditions: entries 1 and 4
row,Substance,destabilization of the duplex on analogous replacement in a DNA octamer [°C]
1,"5′-gacdtagg [Entry 4, reference compound]",0.5

# Same assay, conditions: entries 8 and 11
row,Substance,stabilization of the complementary duplex on replacement of one internal LNA-A by LNA-D [°C]
1,"(1R,3R,4R,7S)-7-(2-Cyanoethoxy(diisopropylamino)phosphinoxy)-1-(4,4′-dimethoxytrityloxymethyl)-3-(hyroxanthin-9-yl)-dioxabicyclo[2.2.1]heptane [compound 11]",6.2

# System: yeast HSP78 (YDR258C) sequence
# Experiment: Duplex melting temperatures of HSP78 25-mer capture probes (UV spectrophotometer)
# Settings: 25-mer capture probe duplex with complementary target; design PM = perfectly matched, MM = single mismatch; DNA, LNA_T (T) or LNA_TC (TC) substituted
row,Substance,Average duplex melting temp. [°C]
1,"12822 (DNA ATTGACCTCAAAACTTTCTTGGATA; sugars from the 5' end dllddllllddddllldllldddld, all C 5-methyl, backbone not given here; further chemistry not fully specified) [compound 12822]",75.6
2,"12823 (DNA CCCAACTTTGTGTCGTTTAATAAAA; sugars from the 5' end llldddllddldlddlllddldddd, [5mC] at 1, 2, 3, backbone not given here; further chemistry not fully specified) [compound 12823]",74.8
